Patent US12247015B2, “3-amino-4H-benzo[e][1,2,4]thiadiazine 1,1-dioxide derivatives as inhibitors of MRGX2” (Solent Therapeutics, LLC, priority 2019, dated 2025)

target: hMRGX2 (CHO-K1 cells overexpressing MRGX2) (Homo sapiens (Human), UniProt Q96LB1); test: In vitro inhibition (EC50) of intracellular calcium flux, FLIPR Tetra, substance P stimulation; assay type: cell-based; settings: stimulated with MRGX2 ligand substance P, FLIPR Calcium 5, read-out: hMRGX2 Cellular Potency (pEC50) (converted)
Sequence (Q96LB1 whole entry): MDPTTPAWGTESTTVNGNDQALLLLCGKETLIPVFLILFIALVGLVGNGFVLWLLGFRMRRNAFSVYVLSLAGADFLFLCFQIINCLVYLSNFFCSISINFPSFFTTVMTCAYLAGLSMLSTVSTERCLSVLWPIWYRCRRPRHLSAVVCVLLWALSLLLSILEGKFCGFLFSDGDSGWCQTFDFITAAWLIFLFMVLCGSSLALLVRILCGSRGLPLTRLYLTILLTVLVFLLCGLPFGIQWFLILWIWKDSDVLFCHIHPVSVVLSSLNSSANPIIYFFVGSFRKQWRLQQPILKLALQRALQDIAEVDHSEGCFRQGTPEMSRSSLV
Method: In Vitro Inhibition (EC50) of Intracellular Calcium Flux
The release of intracellular calcium following stimulation of cells with substance P in the presence or absence of inhibitor compounds was measured using the FLIPR Tetra® system. CHO-K1 cells overexpressing MRGX2 were seeded into 384-well plates (Black clear bottom, TC-treated, Fisher #07-200-655) and incubated overnight to allow for cell attachment. Media was removed, and 1× loading buffer (FLIPR® Calcium 5 assay solution, Molecular Devices, per manufacturer specifications) was added. The plates were incubated at 37° C. for 30 minutes. Test compounds were added to cells (11-point dose response, 10 µM maximum concentration) and fluorescence measured (120 seconds, in real time) using the FLIPR Tetra® system. Immediately following, MRGX2 ligand substance P was added at a final concentration of 1 µM and fluorescence measured (120 seconds, in real time) using the FLIPR Tetra® system. The data for the examples are reported as pEC50.

SMILES | EC50
O=S1(=O)N=C(NCc2ccccn2)Nc2c(-c3cc(F)cc(F)c3)cccc21 [Example 83, 5-(3,5-difluorophenyl)-3-((pyridin-2-ylmethyl)amino)-4H-benzo[e][1,2,4]thiadiazine 1,1-dioxide] | 423 nM
CNC1=NS(=O)(=O)c2cc(F)cc(-c3ccccc3Cl)c2N1 [Example 13, 5-(2-chlorophenyl)-7-fluoro-3-(methylamino)-4H-benzo[e][1,2,4]thiadiazine 1,1-dioxide] | 35.5 nM
Cn1cccc(CNC2=NS(=O)(=O)c3cccc(-c4cccc(F)c4Cl)c3N2)c1=O [Example 46, 3-(((5-(2-chloro-3-fluorophenyl)-1,1-dioxido-4H-benzo[e][1,2,4]thiadiazin-3-yl)amino)methyl)-1-methylpyridin-2(1H)-one] | 87.9 nM
CO[C@H](C)CNC1=NS(=O)(=O)c2cccc(-c3cccc(F)c3F)c2N1 (single isomer, unassigned) [Example 24] | 64.1 nM
COC(C)CNC1=NS(=O)(=O)c2cccc(-c3cn(C)nc3C)c2N1 (stereo not drawn) [Example 60, 5-(1,3-dimethyl-1H-pyrazol-4-yl)-3-((2-methoxypropyl)amino)-4H-benzo[e][1,2,4]thiadiazine 1,1-dioxide] | 865 nM
COCCNC1=NS(=O)(=O)c2cccc(-c3cc(F)cc(F)c3Cl)c2N1 [Example 32, 5-(2-chloro-3,5-difluorophenyl)-3-((2-methoxyethyl)amino)-4H-benzo[e][1,2,4]thiadiazine 1,1-dioxide] | 35.7 nM
O=S1(=O)N=C(NCc2ccccn2)Nc2c(-c3cccc(F)c3Cl)cccc21 [Example 31, 5-(2-chloro-3-fluorophenyl)-3-((pyridin-2-ylmethyl)amino)-4H-benzo[e][1,2,4]thiadiazine 1,1-dioxide] | 29.9 nM
Cc1cnc(CNC2=NS(=O)(=O)c3cccc(-c4cccc(F)c4Cl)c3N2)o1 [Example 38, 5-(2-chloro-3-fluorophenyl)-3-(((5-methyloxazol-2-yl)methyl)amino)-4H-benzo[e][1,2,4]thiadiazine 1,1-dioxide] | 51.9 nM
O=S1(=O)N=C(NCc2ncco2)Nc2c(-c3cccc(F)c3F)cccc21 [Example 27, 5-(2,3-difluorophenyl)-3-((oxazol-2-ylmethyl)amino)-4H-benzo[e][1,2,4]thiadiazine 1,1-dioxide] | 344 nM
CCNC1=NS(=O)(=O)c2cccc(-c3ccccc3Cl)c2N1 [Example 42, 5-(2-chlorophenyl)-3-(ethylamino)-4H-benzo[e][1,2,4]thiadiazine 1,1-dioxide] | 77.1 nM
CNC1=NS(=O)(=O)c2cccc(-c3ccc(F)cc3Cl)c2N1 [Example 94, 5-(2-chloro-4-fluorophenyl)-3-(methylamino)-4H-benzo[e][1,2,4]thiadiazine 1,1-dioxide] | 235 nM
Cc1nn(C)cc1-c1cccc2c1NC(NCC1CCC1)=NS2(=O)=O [Example 61, 3-((cyclobutylmethyl)amino)-5-(1,3-dimethyl-1H-pyrazol-4-yl)-4H-benzo[e][1,2,4]thiadiazine 1,1-dioxide] | 430 nM
COC(C)CNC1=NS(=O)(=O)c2cccc(-c3cccc(F)c3F)c2N1 (racemic) [Example 23, 5-(2,3-difluorophenyl)-3-((2-methoxypropyl)amino)-4H-benzo[e][1,2,4]thiadiazine 1,1-dioxide] | 41.1 nM
CNC1=NS(=O)(=O)c2cccc(-c3cc(Cl)ccc3C#N)c2N1 [Example 90, 4-chloro-2-(3-(methylamino)-1,1-dioxido-4H-benzo[e][1,2,4]thiadiazin-5-yl)benzonitrile] | 973 nM
O=S1(=O)N=C(NCC(F)F)Nc2c(-c3cccc(F)c3Cl)cc(F)cc21 [Example 10, 5-(2-chloro-3-fluorophenyl)-3-((2,2-difluoroethyl)amino)-7-fluoro-4H-benzo[e][1,2,4]thiadiazine 1,1-dioxide] | 39.3 nM
O=S1(=O)N=C(NCC(F)F)Nc2c(-c3ccnc(F)c3Cl)cccc21 [Example 53, 5-(3-chloro-2-fluoropyridin-4-yl)-3-((2,2-difluoroethyl)amino)-4H-benzo[e][1,2,4]thiadiazine 1,1-dioxide] | 575 nM
COc1ccccc1CCNC1=NS(=O)(=O)c2cccc(-c3cccc(F)c3Cl)c2N1 [Example 71, 5-(2-chloro-3-fluorophenyl)-3-((2-methoxyphenethyl)amino)-4H-benzo[e][1,2,4]thiadiazine 1,1-dioxide] | 82.8 nM
COC(C)CNC1=NS(=O)(=O)c2cccc(-c3ccccc3Cl)c2N1 (stereo not drawn) [Example 40, 5-(2-chlorophenyl)-3-((2-methoxypropyl)amino)-4H-benzo[e][1,2,4]thiadiazine 1,1-dioxide] | 76.2 nM
O=S1(=O)N=C(NCc2cc(F)ccc2F)Nc2c(-c3cc(F)cc(F)c3)cccc21 [Example 76, 3-((2,5-difluorobenzyl)amino)-5-(3,5-difluorophenyl)-4H-benzo[e][1,2,4]thiadiazine 1,1-dioxide] | 34.8 nM
O=S1(=O)N=C(NCC2CC2)Nc2c(-c3cccc(F)c3Cl)cccc21 [Example 29, 5-(2-chloro-3-fluorophenyl)-3-((cyclopropylmethyl)amino)-4H-benzo[e][1,2,4]thiadiazine 1,1-dioxide] | 26.8 nM
O=S1(=O)N=C(NCC2CCC2)Nc2c(-c3cccc(F)c3F)cccc21 [Example 22, 3-((cyclobutylmethyl)amino)-5-(2,3-difluorophenyl)-4H-benzo[e][1,2,4]thiadiazine 1,1-dioxide] | 80.5 nM
CNC1=NS(=O)(=O)c2cccc(-c3ccnc(F)c3Cl)c2N1 [Example 56, 5-(3-chloro-2-fluoropyridin-4-yl)-3-(methylamino)-4H-benzo[e][1,2,4]thiadiazine 1,1-dioxide] | 282 nM
O=S1(=O)N=C(NCc2ccsn2)Nc2c(-c3cccc(F)c3Cl)cccc21 [Example 64, 5-(2-chloro-3-fluorophenyl)-3-((isothiazol-3-ylmethyl)amino)-4H-benzo[e][1,2,4]thiadiazine 1,1-dioxide] | 15.6 nM

Second part, the compound after the results:

EC50 | SMILES
394 nM | COC1CC(NC2=NS(=O)(=O)c3cccc(-c4cccc(F)c4Cl)c3N2)C1 (stereo not drawn) [Example 167, 5-(2-chloro-3-fluorophenyl)-3-((3-methoxycyclobutyl)amino)-4H-benzo[e][1,2,4]thiadiazine 1,1-dioxide]
470 nM | COCCNC1=NS(=O)(=O)c2cccc(-c3cc(F)cc(F)c3F)c2N1 [Example 168, 3-((2-methoxyethyl)amino)-5-(2,3,5-trifluorophenyl)-4H-benzo[e][1,2,4]thiadiazine 1,1-dioxide]
416 nM | COC(C)CNC1=NS(=O)(=O)c2cccc(-c3cccc(F)c3C#N)c2N1 (stereo not drawn) [Example 150, 2-fluoro-6-(3-((2-methoxypropyl)amino)-1,1-dioxido-4H-benzo[e][1,2,4]thiadiazin-5-yl)benzonitrile]
35.2 nM | CO[C@@H](C)CCNC1=NS(=O)(=O)c2cccc(-c3cccc(F)c3Cl)c2N1 [Example 155, (S)-5-(2-chloro-3-fluorophenyl)-3-((3-methoxybutyl)amino)-4H-benzo[e][1,2,4]thiadiazine 1,1-dioxide]
225 nM | O=S1(=O)N=C(NCc2ccco2)Nc2c(-c3cc(F)cc(F)c3)cccc21 [Example 164, 5-(3,5-difluorophenyl)-3-((furan-2-ylmethyl)amino)-4H-benzo[e][1,2,4]thiadiazine 1,1-dioxide]
592 nM | CC(C)c1ccc(NC2=NS(=O)(=O)c3cccc(-c4ccn(C)n4)c3N2)cc1 [Example 108, 3-((4-isopropylphenyl)amino)-5-(1-methyl-1H-pyrazol-3-yl)-4H-benzo[e][1,2,4]thiadiazine 1,1-dioxide]
35.2 nM | CC(C)c1ccc(NC2=NS(=O)(=O)c3cccc(C(C)C)c3N2)cc1 [Example 110, 5-isopropyl-3-((4-isopropylphenyl)amino)-4H-benzo[e][1,2,4]thiadiazine 1,1-dioxide]
723 nM | COCCNC1=NS(=O)(=O)c2cccc(-c3cc(C(F)(F)F)ccc3Cl)c2N1 [Example 134, 5-(2-chloro-5-(trifluoromethyl)phenyl)-3-((2-methoxyethyl)amino)-4H-benzo[e][1,2,4]thiadiazine 1,1-dioxide]
70 nM | N#Cc1c(F)cccc1-c1cccc2c1NC(NCc1nccs1)=NS2(=O)=O [Example 126, 2-(1,1-dioxido-3-((thiazol-2-ylmethyl)amino)-4H-benzo[e][1,2,4]thiadiazin-5-yl)-6-fluorobenzonitrile]
47.5 nM | COCCNC1=NS(=O)(=O)c2cccc(-c3cccc(F)c3C3CC3)c2N1 [Example 156, 5-(2-cyclopropyl-3-fluorophenyl)-3-((2-methoxyethyl)amino)-4H-benzo[e][1,2,4]thiadiazine 1,1-dioxide]
841 nM | COCCNC1=NS(=O)(=O)c2cccc(-c3cccc(Cl)c3F)c2N1 [Example 135, 5-(3-chloro-2-fluorophenyl)-3-((2-methoxyethyl)amino)-4H-benzo[e][1,2,4]thiadiazine 1,1-dioxide]
589 nM | CNC1=NS(=O)(=O)c2cc(C)cc(-c3cccc(F)c3Cl)c2N1 [Example 97, 5-(2-chloro-3-fluorophenyl)-7-methyl-3-(methylamino)-4H-benzo[e][1,2,4]thiadiazine 1,1-dioxide]
431 nM | O=S1(=O)N=C(Nc2ccccc2)Nc2c(C3CC3)cccc21 [Example 121, 5-cyclopropyl-3-(phenylamino)-4H-benzo[e][1,2,4]thiadiazine 1,1-dioxide]
